From ChEMBL document CHEMBL1201862, “PubChem BioAssay data set” (2004)
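Test compounds were applied to cells in 96-well plates for 48 hours at 5 doses. GI50 = concentration required for 50% inhibition of growth.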 The source made the active and inactive calls. Cut-off read from the data, not from the text of the source: active = GI50 up to about 1.1 µM and inactive = higher.

Tests used:
Assay in all cases: inhibition of tumour cell growth, NCI panel, 48 h
[1] = test system: CAKI-1
[2] = test system: DMS-114
[3] = test system: EKVX
[4] = test system: HCC 2998
[5] = test system: K562
[6] = test system: KM-20L2
[7] = test system: NCI-H460
[8] = test system: OVCAR-8
[9] = test system: RXF 393
[10] = test system: SK-MEL-28
[11] = test system: SK-MEL-5
[12] = test system: SNB-19
[13] = test system: SNB-78
[14] = test system: SW-620
[15] = test system: UACC-257
[16] = test system: LXFL 529

Measured: GI50

C=CCCCC(C#N)(c1ccccc1)N1CCCC1 (configuration not stated)
inactive: [1] > 100 µM | [2] > 100 µM | [3] > 100 µM | [4] > 100 µM | [5] > 100 µM | [6] > 100 µM | [7] > 100 µM | [8] > 100 µM | [9] > 100 µM | [10] > 100 µM | [11] > 100 µM | [12] > 100 µM | [13] > 100 µM | [14] > 100 µM | [15] > 100 µM

Cc1cccc(C2=C/C(=C(\SS/C(C(=O)c3ccc(OCC(=O)O)c(Cl)c3Cl)=C3\C=C(c4cccc(C)c4)SS3)C(=O)c3ccc(OCC(=O)O)c(Cl)c3Cl)SS2)c1
inactive: [1] 23.1 µM | [2] 5.42 µM | [3] 56.5 µM | [4] 31 µM | [5] 4.31 µM | [6] 47.1 µM | [7] 27.2 µM | [8] 11.7 µM | [10] 18.6 µM | [11] 15.9 µM | [12] 10.9 µM | [13] 15.6 µM | [14] 18.1 µM | [15] 34.4 µM

O=C(Nc1cccc(O)c1)C(=O)C(C(=O)c1ccc(Cl)c(Cl)c1)C1OC(=O)c2ccccc21 (configuration not stated)
inactive: [1] 27.2 µM | [2] 12.1 µM | [3] 18.5 µM | [4] 15.5 µM | [5] 15 µM | [6] 18.8 µM | [16] 12.2 µM | [7] 13.2 µM | [8] 10.7 µM | [9] 20.9 µM | [10] 21.6 µM | [11] 19.7 µM | [12] 13.3 µM | [13] 7.08 µM | [14] 14.4 µM | [15] 20.6 µM

N#CC(C#N)=C1NC(=O)CC(=O)N1
inactive: [1] > 100 µM | [2] > 100 µM | [3] > 100 µM | [4] > 100 µM | [5] > 100 µM | [6] > 100 µM | [16] > 100 µM | [7] > 100 µM | [8] > 100 µM | [9] > 100 µM | [11] > 100 µM | [12] > 100 µM | [13] > 100 µM | [14] > 100 µM | [15] > 100 µM

Cn1c(=O)c2c3ccccc3c(C(=O)c3ccccc3)n2c2ccccc21
inactive: [1] > 26.8 µM | [2] 3.67 µM | [3] > 89.3 µM | [5] 4.08 µM | [6] 3.8 µM | [16] > 24.5 µM | [7] 3.48 µM | [8] 16.4 µM | [9] 14.7 µM | [10] 17.8 µM | [11] 6.08 µM | [12] > 43.3 µM | [13] 63.2 µM | [14] 5.78 µM | [15] > 100 µM

Cc1ccc(NC(=O)C2C3CCC(O3)C2C(=O)O)cc1 (configuration not stated)
inactive: [1] > 100 µM | [2] 33.3 µM | [3] > 94.4 µM | [4] 99.1 µM | [5] > 48.2 µM | [6] > 26.6 µM | [16] > 46.2 µM | [7] > 71.4 µM | [8] > 100 µM | [9] 15.8 µM | [10] > 75 µM | [11] > 75 µM | [12] > 100 µM | [13] > 86.7 µM | [14] > 22.3 µM | [15] > 100 µM

Cc1cc2c(=O)cc(-c3ccncc3)oc2c(C(=O)O)c1C
inactive: [3] > 100 µM | [4] > 100 µM | [6] > 100 µM | [16] > 100 µM | [7] > 100 µM | [8] > 100 µM | [9] > 100 µM | [10] > 100 µM | [12] > 100 µM | [13] > 100 µM | [14] > 100 µM | [15] > 100 µM

Cc1ccc(NC(=O)CC(=O)n2nc(-c3ccccc3)c(/N=N/c3ccc(Cl)cc3)c2-c2ccccc2)cc1
inactive: [1] > 100 µM | [2] 39.6 µM | [3] > 100 µM | [4] 84.5 µM | [5] 13.5 µM | [6] 49.9 µM | [16] 64.7 µM | [7] 40.3 µM | [8] 26 µM | [10] > 100 µM | [11] > 100 µM | [12] 42.6 µM | [13] > 100 µM | [14] 15.2 µM | [15] 33.8 µM

Cc1cccc(C)c1NC(=O)CCCC(=O)C(C#N)c1ccc(Cl)cc1 (configuration not stated)
inactive: [1] > 100 µM | [2] > 100 µM | [3] > 100 µM | [4] > 100 µM | [5] > 100 µM | [6] > 100 µM | [16] > 100 µM | [7] > 100 µM | [8] > 100 µM | [10] > 100 µM | [11] > 100 µM | [12] > 100 µM | [13] > 100 µM | [14] > 100 µM | [15] > 100 µM

Cc1cccc(C(C)C)c1NC(=O)CCl
inactive: [1] 27.9 µM | [2] 20.8 µM | [3] 20.6 µM | [4] 29.6 µM | [5] 56.2 µM | [6] 45.4 µM | [16] 76.7 µM | [7] 64.6 µM | [9] 25.2 µM | [10] > 100 µM | [11] 91.4 µM | [12] 36.5 µM | [13] 48.9 µM | [14] 39.6 µM | [15] > 100 µM

C[Si]12OCCCN(CCO1)CCO2
inactive: [1] > 100 µM | [2] > 100 µM | [3] > 100 µM | [4] > 100 µM | [5] > 100 µM | [16] > 100 µM | [7] > 100 µM | [8] > 100 µM | [9] > 100 µM | [10] > 100 µM | [11] > 100 µM | [12] > 100 µM | [13] > 100 µM | [14] > 100 µM | [15] > 100 µM

O=C(Nc1cccc(Cl)c1)c1cc2cc(/N=N/c3ccc(Br)cc3)ccc2oc1=O
inactive: [1] 23.2 µM | [2] 18.4 µM | [3] 34.3 µM | [4] 25.8 µM | [5] 6.19 µM | [6] 45.1 µM | [16] 14.1 µM | [7] 36 µM | [8] 58.7 µM | [9] 16.1 µM | [10] 47.8 µM | [11] 36.8 µM | [12] 25.1 µM | [13] 52.8 µM | [14] 29.3 µM | [15] 33.3 µM

CSCC(COC(C)=O)(CSC)c1ccncc1
inactive: [1] > 100 µM | [2] > 100 µM | [3] > 100 µM | [4] > 100 µM | [5] > 100 µM | [6] > 100 µM | [16] > 100 µM | [7] > 100 µM | [8] > 100 µM | [9] > 100 µM | [10] > 100 µM | [11] 53.6 µM | [12] > 100 µM | [13] > 100 µM | [14] > 100 µM | [15] > 100 µM

COc1c(OC)c(N)c2cc(C)c(=O)c(C)cc2c1N
inactive: [1] > 100 µM | [2] 50.9 µM | [3] > 100 µM | [4] > 100 µM | [5] > 100 µM | [6] > 100 µM | [16] 64.9 µM | [7] > 100 µM | [8] > 100 µM | [9] > 100 µM | [11] > 100 µM | [12] > 100 µM | [13] > 100 µM | [14] 18.1 µM | [15] > 100 µM

NC(CCSCCF)C(=O)O (configuration not stated)
inactive: [1] > 100 µM | [2] > 100 µM | [3] > 100 µM | [5] > 100 µM | [6] > 100 µM | [16] > 100 µM | [7] > 100 µM | [10] > 100 µM | [12] > 100 µM | [13] > 100 µM | [14] > 100 µM

C=C1CC(CCCl)(c2ccccc2)OC1=O (configuration not stated)
inactive: [2] 37.9 µM | [3] > 44 µM | [4] 35.7 µM | [5] 33.3 µM | [6] 61.8 µM | [16] 20 µM | [7] > 100 µM | [8] 41.1 µM | [9] 13.3 µM | [10] 16.2 µM | [11] > 100 µM | [12] > 78.7 µM | [13] 42.2 µM | [14] 20.2 µM | [15] 44.2 µM

CC(=O)O[C@@H]1CC[C@@]2(C)C(=O)C34C[C@@]5(C)C([C@@H](C)CCCC(C)C)CCC5(C)[C@](O)(O3)C(=O)[C@H]4C2C1(C)C (some centres not stated)
inactive: [1] 14.7 µM | [2] 17.4 µM | [3] 18.4 µM | [4] 11.3 µM | [5] 9.42 µM | [6] 17.4 µM | [16] 16.7 µM | [7] 6.04 µM | [8] 16.5 µM | [10] 18.9 µM | [11] 15 µM | [12] 16.6 µM | [13] 20.8 µM | [14] 11.5 µM | [15] 17 µM

CCCCCC(=O)N[C@H]1CCc2cc(O)c(O)c(O)c2-c2ccc(SC)c(=O)cc21
inactive: [1] 28.3 µM | [2] 15.5 µM | [3] > 63.1 µM | [4] 32.9 µM | [5] 6.47 µM | [6] 27.6 µM | [16] 21.5 µM | [7] 38.4 µM | [8] 26.1 µM | [9] 38.9 µM | [10] 48.3 µM | [11] 28.4 µM | [12] 43.3 µM | [13] 65.2 µM | [14] 17.8 µM | [15] 37.5 µM
